Earlier results, collected in article PMC5493349, “Quaternary structure is an essential component that contributes to the sophisticated allosteric regulation mechanism in a key enzyme from Mycobacterium tuberculosis” (PLoS ONE, 2017).

Tests used:
Details in all cases: cited from earlier work
wild-type MtuDAH7PS [1] = biological target: T1, wild-type MtuDAH7PS (Mycobacterium tuberculosis, UniProt O53512)
wild-type MtuDAH7PS [2] = biological target: T1, wild-type MtuDAH7PS; remark: listed apart in the source
wild-type MtuDAH7PS [3] = biological target: T1, wild-type MtuDAH7PS; remark: listed apart in the source

T1 sequence (O53512 whole entry): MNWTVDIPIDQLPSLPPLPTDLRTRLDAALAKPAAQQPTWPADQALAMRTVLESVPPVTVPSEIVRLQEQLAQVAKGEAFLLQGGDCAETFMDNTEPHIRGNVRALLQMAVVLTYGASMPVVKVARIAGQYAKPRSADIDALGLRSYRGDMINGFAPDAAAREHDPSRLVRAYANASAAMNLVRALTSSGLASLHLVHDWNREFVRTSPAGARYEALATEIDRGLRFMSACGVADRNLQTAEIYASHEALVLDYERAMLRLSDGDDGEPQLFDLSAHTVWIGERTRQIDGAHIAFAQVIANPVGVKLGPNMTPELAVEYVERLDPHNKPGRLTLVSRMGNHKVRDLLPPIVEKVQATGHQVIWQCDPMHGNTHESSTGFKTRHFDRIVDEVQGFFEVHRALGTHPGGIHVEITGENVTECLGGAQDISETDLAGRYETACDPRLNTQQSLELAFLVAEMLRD

O=C[C@H](O)[C@H](O)COP(=O)(O)O [E4P, erythrose 4-phosphate]
E4P0.5 (wild-type MtuDAH7PS [1]): 382 µM

N[C@@H](Cc1c[nH]c2ccccc12)C(=O)O [Trp, L-Trp]
inhibition of wild type MtuDAH7PS by Trp alone (wild-type MtuDAH7PS [2]): not inhibitory
reduction in Kd of Trp after pre-incubation with Phe (wild-type MtuDAH7PS [3]): 4 fold
